Columns and labels:
Assay type in all cases: cell-based
NF-κB = test: Nuclear NF-κB level in RAW264.7 mouse macrophage cells (Example 4); conditions: final 1 and 100 ng/mL, 24 hours pre-treatment, no LPSp, FIG. 4
Experimental: In the same manner as “(1) Preparation of test solution” in Example 3, a solution having a concentration of the purified product of 20,000 ng/mL was prepared, and the solution was serially diluted with a culture solution having the following composition, thereby obtaining two test solutions having 100 ng/mL and 10,000 ng/mL. Since the two test solutions are diluted 100-fold when added to the cells, the final concentrations of the purified product are 1 ng/mL and 100 ng/mL, respectively.
The culture medium was added to mouse macrophage cells (RAW264.7, ATCC) to prepare solutions at concentrations of 1.067×10^6 cells/mL. The solutions were seeded in 6 well plates in 3 mL portions, i.e., 3.2×10^6 cells/3 mL/well. After seeding, the test solution was incubated at 37° C. in a 5% CO2 for 2 hours, and 30 μL of the test solution was added to each well. After adding the test solution, the test solution was incubated at 37° C. in a 5% CO2 for 24 hours. The culture supernatant of each of the wells was then collected in a 15 mL tube. Then, 1 mL of the fresh culture solution was added to each of the wells, and after spreading over the entire well, the operation of collecting the culture solution into the 15 mL tube was repeated twice. Thereafter, the culture solution collected in the 15 mL tube was centrifuged at 1,000 rpm for 3 minutes, the supernatant was removed, and 3 mL of a new culture solution at 37° C. was added to suspend the culture solution, and centrifuged again under the same conditions. After centrifugation, the supernatant was removed, and 2 mL of the above-mentioned culture solution at 37° C. was added to the precipitate and suspended. Then, 2 mL of the suspension was added to each well to which 1 mL of a new culture medium had been added in advance. Thereafter, 30 μL of a new culture medium was added (hereinafter, this step is referred to as a “culture medium addition step”). After incubation at 37° C. in a 5% CO2 for 30 minutes, the culture supernatants of the wells were collected in 15-mL tubes, centrifuged at 1,000 rpm for 3 minutes, and the supernatants were removed by an aspirator. In addition, to the wells of the 6-well plate from which the culture supernatant was removed, 3 mL of cooled PBS (Phosphate buffered saline)/Phosphatase Inhibitors solution was added, the cells were removed by pipetting, and the cell suspension was added to the 15-mL tubes. The 15 mL tube was centrifuged at 1,000 rpm for 3 minutes, the supernatant was removed by an aspirator, and 0.5 mL of the cooled PB S/Phosphatase Inhibitors solution was added to the 15 mL tube and suspended to prepare a cell suspension. […]
The amount of NF-κB in the nucleoprotein was confirmed by measuring the absorbance using the Trans AM NF KB p65 kit (manufactured by Active Motif).

human TLR4 = target: T1, human TLR4 (Homo sapiens, UniProt O00206+Q9Y6Y9); test: IL-8 production in Human Embryonic Kidney cells transfected with human TLR4 gene (Example 3); conditions: HEK cells with human TLR4 gene; final 0.1-10,000 ng/mL; 24 hours; ELISA; FIG. 3
T1 construct: host or cells: Human Embryonic Kidney cells
Experimental: The purified product obtained in Example 1 (the mixture of the compound represented by Formula (A1), the compound represented by Formula (B1), the compound represented by Formula (A2), and the compound represented by Formula (B2)) was dissolved in water for injection to a concentration of 2 mg/mL and stored at 4° C., and the solution was heated at 37° C. for 5 minutes and sonicated at 37° C. for 1 minute. 10 μL of the sonicated solution was added to 990 μL of the culture solution having the following composition to thoroughly mix, and a solution having a concentration of 20,000 ng/mL was prepared, which was serially diluted using the culture solution to obtain six test solutions having concentrations of 2,000 ng/mL, 200 ng/mL, 20 ng/mL, 2 ng/mL, and 0.2 ng/mL. Since the six test solutions are diluted twice when added to the cells, the final concentrations of the purified products are 10,000 ng/mL, 1,000 ng/mL, 100 ng/mL, 10 ng/mL, 1 ng/mL, and 0.1 ng/mL, respectively.
The culture medium was added to Human Embryonic Kidney cells (manufactured by InvivoGen) into which human TLR4 gene had been transfected, and solution were prepared in which the concentration of the cell was 4×10^5 cells/mL. The solution was seeded in 96-well flat-bottomed plates in 100 μL portions, i.e., 4×10^4 cells/100 μL/well. After seeding, the culture was cultured at 37° C. in a 5% CO2 for 24 hours, then the culture supernatant was removed, and 100 μL of the above-described culture medium was added to each well. Next, 100 μL of the test solution was added to each well. After adding the test solution, the culture was incubated at 37° C. in a 5% CO2 for 24 hours.
Culture supernatants from the wells were collected and the concentrations of Interleukin-8 (IL-8) were measured using Human IL-8 ELISA MAX (registered trademark) Standard (Biolegend).

TNF-α = TNF-α production in RAW264.7 mouse macrophage cells (Example 6); conditions: final 0.01, 0.1 and 1 ng/mL, no LPSp, FIG. 6
Experimental: In the same manner as “(1) Preparation of test solution” in Example 3, a solution having a concentration of the purified product of 20,000 ng/mL was prepared, and the solution was serially diluted with a culture solution having the following composition, thereby obtaining a total of three test solutions having a concentration of 2 ng/mL, 0.2 ng/mL, and 0.02 ng/mL. Since the three test solutions are diluted twice when added to the cells, the final concentrations of the purified products are 1 ng/mL, 0.1 ng/mL, and 0.01 ng/mL, respectively.
The culture medium was added to mouse macrophage cells (RAW264.7, ATCC) to prepare solutions at concentrations of 4×10^5 cells/mL. The solutions were seeded in 96-well flat-bottomed plates in 100 μL portions, i.e., 4×10^4 cells/100 μL/well. After seeding, the cells were incubated at 37° C. in 5% CO2 for 2 hours until they adhered to the bottoms of the wells and extended. Next, 100 μL of the test solution was added to each well. After adding the test solution, the cells were incubated at 37° C. in a 5% CO2 for 24 hours. After the incubation, the culture supernatant of the wells was removed, 150 μl of the above-mentioned culture solution was newly added (hereinafter, this step is referred to as a “culture solution adding step”), and the wells were incubated at 37° C. in a 5% CO2 for 24 hours.
After incubation, 50 μl of culture supernatant from each well was collected, transferred to each well of new 96-well flat-bottom plates, and absorbance was measured using mouse TNF a assay kit (manufactured by Biolegend) and converted to TNF-α concentrations.

T1 sequence (O00206 24-839): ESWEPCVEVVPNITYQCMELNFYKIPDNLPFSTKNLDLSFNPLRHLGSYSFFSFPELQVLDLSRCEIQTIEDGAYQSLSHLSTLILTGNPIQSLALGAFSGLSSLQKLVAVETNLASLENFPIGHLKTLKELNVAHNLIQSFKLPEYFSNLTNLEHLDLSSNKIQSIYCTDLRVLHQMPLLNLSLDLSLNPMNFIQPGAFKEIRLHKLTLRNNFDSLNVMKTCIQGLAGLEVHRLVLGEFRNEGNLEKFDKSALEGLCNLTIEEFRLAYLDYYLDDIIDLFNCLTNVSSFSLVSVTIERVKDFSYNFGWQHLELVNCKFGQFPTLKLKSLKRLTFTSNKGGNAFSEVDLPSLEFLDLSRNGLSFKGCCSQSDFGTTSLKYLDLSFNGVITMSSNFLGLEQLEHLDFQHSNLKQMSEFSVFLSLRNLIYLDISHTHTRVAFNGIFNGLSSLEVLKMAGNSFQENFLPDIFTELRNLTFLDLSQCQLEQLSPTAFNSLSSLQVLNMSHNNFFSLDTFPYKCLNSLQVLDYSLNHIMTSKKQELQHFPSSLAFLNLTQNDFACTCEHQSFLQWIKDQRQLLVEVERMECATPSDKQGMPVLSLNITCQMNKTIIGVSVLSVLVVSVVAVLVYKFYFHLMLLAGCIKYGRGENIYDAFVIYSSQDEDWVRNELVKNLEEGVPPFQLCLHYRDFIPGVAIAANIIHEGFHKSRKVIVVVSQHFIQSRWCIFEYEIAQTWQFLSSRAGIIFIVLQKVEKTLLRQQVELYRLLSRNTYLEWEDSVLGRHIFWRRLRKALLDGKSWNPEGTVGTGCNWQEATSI
T1 sequence (Q9Y6Y9 17-160 limits assumed): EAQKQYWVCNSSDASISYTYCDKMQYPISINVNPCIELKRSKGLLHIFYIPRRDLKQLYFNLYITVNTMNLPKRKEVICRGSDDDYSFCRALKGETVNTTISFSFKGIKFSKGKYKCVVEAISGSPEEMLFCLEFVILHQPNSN

CCCCCC/C=C/CCCCCC(=O)OC(CCCCCCCCCCC)CC(=O)NC1C(OCC2OC(OP(=O)(O)O)C(NC(=O)CC(=O)CCCCCCCCCCC)C(OC(=O)CC(O)CCCCCCC)C2O)OC(COC2(C(=O)O)CC(OC3(C(=O)O)CC(OC4OC(C(=O)O)C(OC5OC(CO)C(O)C(O)C5O)C(O)C4O)C(O)C(C(O)CO)O3)C(OC3OC(CO)C(O)C(O)C3O)C(C(O)CO)O2)C(OP(=O)(O)O)C1OC(=O)CC(O)CCCCCCC (stereo not drawn) [Formula (A2)]
Equivalent results were obtained: amount of NF-κB in the nucleoprotein (absorbance) (NF-κB) | concentration of IL-8 in culture supernatant (human TLR4) | TNF-α concentration in culture supernatant (TNF-α)

CCCCCC/C=C/CCCCCC(=O)OC(CCCCCCCCCCC)CC(=O)NC1C(OCC2OC(OP(=O)(O)O)C(NC(=O)CC(=O)CCCCCCCCCCC)C(OC(=O)CC(O)CCCCCCC)C2O)OC(COC2(C(=O)O)CC(OC3(C(=O)O)CC(O)C(OC4OC(C(=O)O)C(OC5OC(CO)C(O)C(O)C5O)C(O)C4O)C(C(O)CO)O3)C(OC3OC(COP(=O)(O)O)C(OC4OC(CO)C(O)C(O)C4O)C(O)C3O)C(C(O)CO)O2)C(OP(=O)(O)O)C1OC(=O)CC(O)CCCCCCC (stereo not drawn) [Formula (B1)]
Equivalent results were obtained: amount of NF-κB in the nucleoprotein (absorbance) (NF-κB) | concentration of IL-8 in culture supernatant (human TLR4) | TNF-α concentration in culture supernatant (TNF-α)

CCCCCC/C=C/CCCCCC(=O)OC(CCCCCCCCCCC)CC(=O)NC1C(OCC2OC(OP(=O)(O)O)C(NC(=O)CC(=O)CCCCCCCCCCC)C(OC(=O)CC(O)CCCCCCC)C2O)OC(COC2(C(=O)O)CC(OC3(C(=O)O)CC(OC4OC(C(=O)O)C(OC5OC(CO)C(O)C(O)C5O)C(O)C4O)C(O)C(C(O)CO)O3)C(OC3OC(COP(=O)(O)O)C(OC4OC(CO)C(O)C(O)C4O)C(O)C3O)C(C(O)CO)O2)C(OP(=O)(O)O)C1OC(=O)CC(O)CCCCCCC (stereo not drawn) [Formula (A1)]
Equivalent results were obtained: amount of NF-κB in the nucleoprotein (absorbance) (NF-κB) | concentration of IL-8 in culture supernatant (human TLR4) | TNF-α concentration in culture supernatant (TNF-α)

CCCCCC/C=C/CCCCCC(=O)OC(CCCCCCCCCCC)CC(=O)NC1C(OCC2OC(OP(=O)(O)O)C(NC(=O)CC(=O)CCCCCCCCCCC)C(OC(=O)CC(O)CCCCCCC)C2O)OC(COC2(C(=O)O)CC(OC3(C(=O)O)CC(O)C(OC4OC(C(=O)O)C(OC5OC(CO)C(O)C(O)C5O)C(O)C4O)C(C(O)CO)O3)C(OC3OC(CO)C(O)C(O)C3O)C(C(O)CO)O2)C(OP(=O)(O)O)C1OC(=O)CC(O)CCCCCCC (stereo not drawn) [Formula (B2)]
Equivalent results were obtained: amount of NF-κB in the nucleoprotein (absorbance) (NF-κB) | concentration of IL-8 in culture supernatant (human TLR4) | TNF-α concentration in culture supernatant (TNF-α)
